PubChem BioAssay AID2060513 (Molecular Pharmacology Branch, DTP, NCI, 2025)
pIC50: −log10 of the molar value. Blank lines part the entries; values can stand above or below the molecule they belong to.

Test system: 299254-011-R-J1-PDC complex spheroids viability
Experiment: Anticancer human tumor 299254-011-R-J1-PDC patient-derived melanoma cell line growth inhibition [GQUAD]
Conditions: for pIC50: curve of first compound; for viability, T/C: stronger effect = lower value
How it was run: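 Viability of tumor cells grown as complex spheroids with endothelial and stromal cells, exposed to drug combinations. Top concentration at or near clinical Cmax (else 10 microM), diluted in half-log increments.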

[1] = second compound 0.0316 µM, first compound 0.0316 µM
[2] = second compound 0.0316 µM, first compound 0.1 µM
[3] = second compound 0.0316 µM, first compound 0.316 µM
[4] = second compound 0.0316 µM, first compound 1 µM
[5] = second compound 0.0316 µM, first compound 3.16 µM
[6] = second compound 0.0316 µM, first compound 10 µM
[7] = second compound 0.1 µM, first compound 0.0316 µM
[8] = second compound 0.1 µM, first compound 0.1 µM
[9] = second compound 0.1 µM, first compound 0.316 µM
[10] = second compound 0.1 µM, first compound 1 µM
[11] = second compound 0.1 µM, first compound 3.16 µM
[12] = second compound 0.1 µM, first compound 10 µM
[13] = second compound 0.316 µM, first compound 0.0316 µM
[14] = second compound 0.316 µM, first compound 0.1 µM
[15] = second compound 0.316 µM, first compound 0.316 µM
[16] = second compound 0.316 µM, first compound 1 µM
[17] = second compound 0.316 µM, first compound 3.16 µM
[18] = second compound 0.316 µM, first compound 10 µM
[19] = second compound 1 µM, first compound 0.0316 µM
[20] = second compound 1 µM, first compound 0.1 µM
[21] = second compound 1 µM, first compound 0.316 µM
[22] = second compound 1 µM, first compound 1 µM
[23] = second compound 1 µM, first compound 3.16 µM
[24] = second compound 1 µM, first compound 10 µM
[25] = second compound 3.16 µM, first compound 0.0316 µM
[26] = second compound 3.16 µM, first compound 0.1 µM
[27] = second compound 3.16 µM, first compound 0.316 µM
[28] = second compound 3.16 µM, first compound 1 µM
[29] = second compound 3.16 µM, first compound 3.16 µM
[30] = second compound 3.16 µM, first compound 10 µM
[31] = second compound 10 µM, first compound 0.0316 µM
[32] = second compound 10 µM, first compound 0.1 µM
[33] = second compound 10 µM, first compound 0.316 µM
[34] = second compound 10 µM, first compound 1 µM
[35] = second compound 10 µM, first compound 3.16 µM
[36] = second compound 10 µM, first compound 10 µM
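Note: spheroids exposed to the agents for seven days before readout.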
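Throughout, for viability, T/C: percent viability relative to DMSO vehicle control wells = 100%.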

SMILES: O=C(c1cc(Cc2n[nH]c(=O)c3ccccc23)ccc1F)N1CCN(C(=O)C2CC2)CC1 + CN(C)c1ccc(Nc2c3ccc(NC(=O)CCN4CCCC4)cc3nc3cc(NC(=O)CCN4CCCC4)ccc23)cc1
pIC50 (second compound 0.0316 µM): < 5.00 | pIC50 (second compound 0.1 µM): < 5.00 | pIC50 (second compound 0.316 µM): < 5.00 | pIC50 (second compound 1 µM): < 5.00 | pIC50 (second compound 3.16 µM): < 5.00 | pIC50 (second compound 10 µM): < 5.00 | viability, T/C [1]: 81.9% | viability, T/C [2]: 88.2% | viability, T/C [3]: 94% | viability, T/C [4]: 92.7% | viability, T/C [5]: 89.4% | viability, T/C [6]: 78.1% | viability, T/C [7]: 78.9% | viability, T/C [8]: 78.1% | viability, T/C [9]: 85.4% | viability, T/C [10]: 96.8% | viability, T/C [11]: 90.7% | viability, T/C [12]: 80.9% | viability, T/C [13]: 95.6% | viability, T/C [14]: 89.1% | viability, T/C [15]: 87.5% | viability, T/C [16]: 82.8% | viability, T/C [17]: 96.1% | viability, T/C [18]: 85.5% | viability, T/C [19]: 87.9% | viability, T/C [20]: 95.2% | viability, T/C [21]: 96% | viability, T/C [22]: 101% | viability, T/C [23]: 106% | viability, T/C [24]: 80.2% | viability, T/C [25]: 79.7% | viability, T/C [26]: 86.9% | viability, T/C [27]: 99.9% | viability, T/C [28]: 91.1% | viability, T/C [29]: 95.8% | viability, T/C [30]: 68.1% | viability, T/C [31]: 96.2% | viability, T/C [32]: 92.3% | viability, T/C [33]: 82.8% | viability, T/C [34]: 89.2% | viability, T/C [35]: 87.6% | viability, T/C [36]: 95%

SMILES: C=CCn1c(=O)c2cnc(Nc3ccc(N4CCN(C)CC4)cc3)nc2n1-c1cccc(C(C)(C)O)n1 + CN(C)c1ccc(Nc2c3ccc(NC(=O)CCN4CCCC4)cc3nc3cc(NC(=O)CCN4CCCC4)ccc23)cc1
pIC50 (second compound 0.0316 µM): 6.00 | pIC50 (second compound 0.1 µM): 5.75 | pIC50 (second compound 0.316 µM): 5.76 | pIC50 (second compound 1 µM): 5.64 | pIC50 (second compound 3.16 µM): 5.71 | pIC50 (second compound 10 µM): 5.77 | viability, T/C [1]: 101% | viability, T/C [2]: 106% | viability, T/C [3]: 77.8% | viability, T/C [4]: 49.7% | viability, T/C [5]: 46.8% | viability, T/C [6]: 31.5% | viability, T/C [7]: 88.2% | viability, T/C [8]: 94.7% | viability, T/C [9]: 76.6% | viability, T/C [10]: 69.6% | viability, T/C [11]: 30.8% | viability, T/C [12]: 27.3% | viability, T/C [13]: 92.7% | viability, T/C [14]: 81.2% | viability, T/C [15]: 95.9% | viability, T/C [16]: 65.9% | viability, T/C [17]: 34.9% | viability, T/C [18]: 31.5% | viability, T/C [19]: 120% | viability, T/C [20]: 99.5% | viability, T/C [21]: 91.9% | viability, T/C [22]: 71.1% | viability, T/C [23]: 37.4% | viability, T/C [24]: 29.6% | viability, T/C [25]: 92.4% | viability, T/C [26]: 94.5% | viability, T/C [27]: 119% | viability, T/C [28]: 75.2% | viability, T/C [29]: 36.2% | viability, T/C [30]: 28.9% | viability, T/C [31]: 97.5% | viability, T/C [32]: 115% | viability, T/C [33]: 92.7% | viability, T/C [34]: 67.8% | viability, T/C [35]: 27.2% | viability, T/C [36]: 28.3%

pIC50 (second compound 0.0316 µM): 6.39 | pIC50 (second compound 0.1 µM): 6.61 | pIC50 (second compound 0.316 µM): 6.56 | pIC50 (second compound 1 µM): 6.77 | pIC50 (second compound 3.16 µM): 6.69 | pIC50 (second compound 10 µM): > 7.50
SMILES: CC(=O)O[C@H]1C(=O)[C@@]2(C)[C@H]([C@H](OC(=O)c3ccccc3)[C@]3(O)C[C@H](OC(=O)[C@H](O)[C@@H](NC(=O)c4ccccc4)c4ccccc4)C(C)=C1C3(C)C)[C@]1(OC(C)=O)CO[C@@H]1C[C@@H]2O + Cc1cnc(CNC(=O)c2c(=O)c3ccc(N4CCCN(C)CC4)nc3n3c2sc2ccccc23)cn1
viability, T/C [1]: 90% | viability, T/C [2]: 77.5% | viability, T/C [3]: 58.8% | viability, T/C [4]: 23.7% | viability, T/C [5]: 26.8% | viability, T/C [6]: 23% | viability, T/C [7]: 114% | viability, T/C [8]: 89.2% | viability, T/C [9]: 38.1% | viability, T/C [10]: 29.3% | viability, T/C [11]: 29.1% | viability, T/C [12]: 23.3% | viability, T/C [13]: 94.4% | viability, T/C [14]: 75.1% | viability, T/C [15]: 44.9% | viability, T/C [16]: 32.1% | viability, T/C [17]: 24.1% | viability, T/C [18]: 22.7% | viability, T/C [19]: 67.6% | viability, T/C [20]: 62.8% | viability, T/C [21]: 34.6% | viability, T/C [22]: 30.8% | viability, T/C [23]: 24.9% | viability, T/C [24]: 27.1% | viability, T/C [25]: 57.7% | viability, T/C [26]: 58% | viability, T/C [27]: 43.6% | viability, T/C [28]: 39.8% | viability, T/C [29]: 25.6% | viability, T/C [30]: 29.2% | viability, T/C [31]: 0.42% | viability, T/C [32]: 0.39% | viability, T/C [33]: 0.41% | viability, T/C [34]: 0.35% | viability, T/C [35]: 0.4% | viability, T/C [36]: 0.34%
